Experimental data taken from patent US8802597B2, “Herbicidal pyrimidines” (E I du Pont de Nemours and Company, priority 2003, dated 2014).
Where two headings read alike, the source gives them in different places.

Assays:
[1] = test system: velvetleaf (Abutilon theophrasti); assay: Test A pre/postemergence; format: in vivo; settings: Abutilon theophrasti, 240 h, read-out: Plant response rating, Velvetleaf; for pest or weed control at 125 g/ha: 125 g ai/ha; for pest or weed control at 500 g/ha: 500 g ai/ha
Method in brief: (§1)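 Visual injury scored 0–100 (0 = no effect, 100 = complete control) against untreated controls after about ten days in the greenhouse. Compounds, formulated in non-phytotoxic solvent plus surfactant, were applied preemergence as a directed soil spray and postemergence at the 1- to 2-leaf stage (2–10 cm).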

[2] = test system: redroot pigweed (Amaranthus retroflexus); assay: Test A pre/postemergence; format: in vivo; settings: Amaranthus retroflexus, 240 h, read-out: Plant response rating, Pigweed; for pest or weed control at 125 g/ha: 125 g ai/ha; for pest or weed control at 500 g/ha: 500 g ai/ha
Method in brief: as §1

[3] = test system: morningglory (Ipomoea spp.); assay: Test A pre/postemergence; format: in vivo; settings: Ipomoea, 240 h, read-out: Plant response rating, Morningglory; for pest or weed control at 125 g/ha: 125 g ai/ha; for pest or weed control at 500 g/ha: 500 g ai/ha
Method in brief: as §1

[4] = test system: crabgrass (Digitaria sanguinalis); assay: Test A pre/postemergence; format: in vivo; settings: Digitaria sanguinalis, 240 h, read-out: Plant response rating, Crabgrass; for pest or weed control at 125 g/ha: 125 g ai/ha; for pest or weed control at 500 g/ha: 500 g ai/ha
Method in brief: as §1

[5] = test system: windgrass (Apera spica-venti); assay: Test C postemergence; format: in vivo
Method in brief: (§2)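 Greenhouse pot test: seeds treated preemergence, or plants at 2–18 cm (1- to 4-leaf stage) treated postemergence, with compound in non-phytotoxic solvent plus surfactant. Visual rating versus untreated controls after 12–14 days, scale 0 (no effect) to 100 (complete control); dash means not tested.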

[6] = test system: winter barley (Hordeum vulgare); assay: Test C postemergence; format: in vivo; settings: for Plant response rating, Barley: scale 0 to 100
Method in brief: as §2

[7] = test system: wheat (Triticum aestivum); assay: Test C postemergence; format: in vivo
Method in brief: as §2

[8] = test system: blackgrass (Alopecurus myosuroides); assay: Test C postemergence; format: in vivo; settings: for Plant response rating, Blackgrass: scale 0 to 100
Method in brief: as §2

[9] = test system: Italian ryegrass (Lolium multiflorum); assay: Test C postemergence; format: in vivo
Method in brief: as §2

[10] = test system: downy brome (Bromus tectorum); assay: Test C postemergence; format: in vivo; settings: for Plant response rating, Bromegrass, Downy: scale 0 to 100
Method in brief: as §2

[11] = test system: green foxtail (Setaria viridis); assay: Test C postemergence; format: in vivo
Method in brief: as §2

[12] = test system: canarygrass (Phalaris minor); assay: Test C postemergence; format: in vivo; settings: for Plant response rating, Canarygrass: scale 0 to 100
Method in brief: as §2

wild oat (Avena fatua) = assay: Test C postemergence; format: in vivo
Method in brief: as §2

[13] = post-emergence, Postemergence, 0 to 100 scale (0 no effect, 100 complete control)
[14] = pre-emergence, Preemergence, 0 to 100 scale where 0 is no effect and 100 is complete control, approximately ten days

**Q.** With `Nc1nc(C2CC2)nc(C(=O)[O-])c1Br.[Na+]` [Compound 113, 6-amino-5-bromo-2-cyclopropyl-4-pyrimidinecarboxylic acid monosodium salt] as the molecule, how does the pest or weed control at 125 g/ha [1, 13] read?
**A.** 80%

**Q.** What about the pest or weed control at 500 g/ha [1, 13] of the same molecule?
**A.** 95%

**Q.** What about the pest or weed control at 125 g/ha [1, 14] of the same molecule?
**A.** 65%

**Q.** What about the pest or weed control at 500 g/ha [1, 14] of the same molecule?
**A.** 95%

**Q.** And the pest or weed control at 125 g/ha [2, 13]?
**A.** 80%

**Q.** What about the pest or weed control at 500 g/ha [2, 13] of the same molecule?
**A.** 90%

**Q.** And the pest or weed control at 125 g/ha [2, 14]?
**A.** 80%

**Q.** And the pest or weed control at 500 g/ha [2, 14]?
**A.** 90%

**Q.** What about the pest or weed control at 125 g/ha [3, 13] of the same molecule?
**A.** 90%

**Q.** And the pest or weed control at 500 g/ha [3, 13]?
**A.** 90%

**Q.** What about the pest or weed control at 125 g/ha [3, 14] of the same molecule?
**A.** 90%

**Q.** And the pest or weed control at 500 g/ha [3, 14]?
**A.** 100%

**Q.** And the pest or weed control at 125 g/ha [4, 13]?
**A.** 25%

**Q.** And the pest or weed control at 500 g/ha [4, 13]?
**A.** 55%

**Q.** And the pest or weed control at 125 g/ha [4, 14]?
**A.** 15%

**Q.** And the pest or weed control at 500 g/ha [4, 14]?
**A.** 70%

**Q.** What about the melting point of the same molecule?
**A.** > 300 °C

**Q.** Which results are given for `CCOC(=O)c1nc(-c2ccc(Br)cc2)nc(N)c1Cl` [Compound 94, ethyl 6-amino-2-(4-bromophenyl)-5-chloro-4-pyrimidinecarboxylate]?
**A.** pest or weed control at 125 g/ha [1, 13]: 90%; pest or weed control at 500 g/ha [1, 13]: 90%; pest or weed control at 125 g/ha [1, 14]: 75%; pest or weed control at 500 g/ha [1, 14]: 90%; pest or weed control at 125 g/ha [2, 13]: 80%; pest or weed control at 500 g/ha [2, 13]: 85%; pest or weed control at 125 g/ha [2, 14]: 90%; pest or weed control at 500 g/ha [2, 14]: 95%; pest or weed control at 125 g/ha [3, 13]: 70%; pest or weed control at 500 g/ha [3, 13]: 75%; pest or weed control at 125 g/ha [3, 14]: 30%; pest or weed control at 500 g/ha [3, 14]: 35%; pest or weed control at 125 g/ha [4, 13]: 35%; pest or weed control at 500 g/ha [4, 13]: 50%; pest or weed control at 125 g/ha [4, 14]: 45%; pest or weed control at 500 g/ha [4, 14]: 55%; melting point: 136 to 137 °C

**Q.** What does the source list for `COC(=O)c1nc(-c2ccc(Br)cc2)nc(N)c1Cl` [Compound 96, methyl 6-amino-2-(4-bromophenyl)-5-chloro-4-pyrimidinecarboxylate]?
**A.** pest or weed control at 125 g/ha [1, 13]: 80%; pest or weed control at 500 g/ha [1, 13]: 85%; pest or weed control at 125 g/ha [1, 14]: 65%; pest or weed control at 500 g/ha [1, 14]: 80%; pest or weed control at 125 g/ha [2, 13]: 70%; pest or weed control at 500 g/ha [2, 13]: 85%; pest or weed control at 125 g/ha [2, 14]: 80%; pest or weed control at 500 g/ha [2, 14]: 80%; pest or weed control at 125 g/ha [3, 13]: 60%; pest or weed control at 500 g/ha [3, 13]: 65%; pest or weed control at 125 g/ha [3, 14]: 15%; pest or weed control at 500 g/ha [3, 14]: 80%; pest or weed control at 125 g/ha [4, 13]: 5%; pest or weed control at 500 g/ha [4, 13]: 20%; pest or weed control at 125 g/ha [4, 14]: 50%; pest or weed control at 500 g/ha [4, 14]: 65%; melting point: 223 to 224 °C

**Q.** Which results are given for `COC(=O)c1nc(C(C)C)nc(N)c1Br` [Compound 3]?
**A.** Plant response rating (scale of 0 to 100), Windgrass ([5]; 31 g ai/ha): 10; Plant response rating, Windgrass ([5]; 250 g ai/ha, scale 0 to 100): 30; pest or weed control at 62 g/ha ([5]; Apera spica-venti, post-emergence, 62 g ai/ha, scale 0 to 100 (0 no effect, 100 complete control), read-out: Windgrass plant response rating): 30%; pest or weed control at 125 g/ha ([5]; Apera spica-venti, post-emergence, 125 g ai/ha, scale 0 to 100 (0 no effect, 100 complete control), read-out: Windgrass plant response rating): 30%; Plant response rating (scale of 0 to 100), Barley ([6]; 31 g ai/ha): 0; Plant response rating, Barley ([6]; 125 g ai/ha): 0; Plant response rating, Barley ([6]; 250 g ai/ha): 30; plant injury at 62 g/ha ([6]; Hordeum vulgare, post-emergence, 62 g ai/ha, scale 0 to 100 (0 no effect, 100 complete control), read-out: Barley plant response rating): 0%; Plant response rating (scale of 0 to 100), Wheat ([7]; 31 g ai/ha): 0; Plant response rating, Wheat ([7]; 250 g ai/ha, scale 0 to 100): 10; plant injury at 62 g/ha ([7]; Triticum aestivum, post-emergence, 62 g ai/ha, scale 0 to 100 (0 no effect, 100 complete control), read-out: Wheat plant response rating): 0%; plant injury at 125 g/ha ([7]; Triticum aestivum, post-emergence, 125 g ai/ha, scale 0 to 100 (0 no effect, 100 complete control), read-out: Wheat plant response rating): 0%; Plant response rating (scale of 0 to 100), Blackgrass ([8]; 31 g ai/ha): 0; Plant response rating, Blackgrass ([8]; 125 g ai/ha): 0; Plant response rating, Blackgrass ([8]; 250 g ai/ha): 0; pest or weed control at 62 g/ha ([8]; Alopecurus myosuroides, post-emergence, 62 g ai/ha, scale 0 to 100 (0 no effect, 100 complete control), read-out: Blackgrass plant response rating): 0%; Plant response rating (scale of 0 to 100), Ryegrass, Italian ([9]; 31 g ai/ha): 35; Plant response rating, Ryegrass, Italian ([9]; 250 g ai/ha, scale 0 to 100): 35; pest or weed control at 62 g/ha ([9]; Lolium multiflorum, post-emergence, 62 g ai/ha, scale 0 to 100 (0 no effect, 100 complete control), read-out: Ryegrass, Italian plant response rating): 35%; pest or weed control at 125 g/ha ([9]; Lolium multiflorum, post-emergence, 125 g ai/ha, scale 0 to 100 (0 no effect, 100 complete control), read-out: Ryegrass, Italian plant response rating): 35%; Plant response rating (scale of 0 to 100), Bromegrass, Downy ([10]; 31 g ai/ha): 20; Plant response rating, Bromegrass, Downy ([10]; 125 g ai/ha): 20; Plant response rating, Bromegrass, Downy ([10]; 250 g ai/ha): 20; pest or weed control at 62 g/ha ([10]; Bromus tectorum, post-emergence, 62 g ai/ha, scale 0 to 100 (0 no effect, 100 complete control), read-out: Bromegrass, Downy plant response rating): 20%; Plant response rating (scale of 0 to 100), Foxtail, Green ([11]; 31 g ai/ha): 20; Plant response rating, Foxtail, Green ([11]; 250 g ai/ha, scale 0 to 100): 35; pest or weed control at 62 g/ha ([11]; Setaria viridis, post-emergence, 62 g ai/ha, scale 0 to 100 (0 no effect, 100 complete control), read-out: Foxtail, Green plant response rating): 30%; pest or weed control at 125 g/ha ([11]; Setaria viridis, post-emergence, 125 g ai/ha, scale 0 to 100 (0 no effect, 100 complete control), read-out: Foxtail, Green plant response rating): 35%; Plant response rating (scale of 0 to 100), Canarygrass ([12]; 31 g ai/ha): 10; Plant response rating, Canarygrass ([12]; 125 g ai/ha): 10; Plant response rating, Canarygrass ([12]; 250 g ai/ha): 10; pest or weed control at 62 g/ha ([12]; Phalaris minor, post-emergence, 62 g ai/ha, scale 0 to 100 (0 no effect, 100 complete control), read-out: Canarygrass plant response rating): 10%; Plant response rating (scale of 0 to 100), Oat, Wild (wild oat (Avena fatua); 31 g ai/ha): 30; Plant response rating, Oat, Wild (wild oat (Avena fatua); 250 g ai/ha, scale 0 to 100): 40; pest or weed control at 62 g/ha (wild oat (Avena fatua); Avena fatua, post-emergence, 62 g ai/ha, scale 0 to 100 (0 no effect, 100 complete control), read-out: Oat, Wild plant response rating): 30%; pest or weed control at 125 g/ha (wild oat (Avena fatua); Avena fatua, post-emergence, 125 g ai/ha, scale 0 to 100 (0 no effect, 100 complete control), read-out: Oat, Wild plant response rating): 40%; melting point: 107 to 109 °C

**Q.** What does the source list for `Nc1nc(-c2ccc(Br)cc2)nc(C(=O)O)c1Cl` [Compound 95, 6-amino-2-(4-bromophenyl)-5-chloro-4-pyrimidinecarboxylic acid]?
**A.** pest or weed control at 125 g/ha [1, 13]: 90%; pest or weed control at 500 g/ha [1, 13]: 95%; pest or weed control at 125 g/ha [1, 14]: 55%; pest or weed control at 500 g/ha [1, 14]: 95%; pest or weed control at 125 g/ha [2, 13]: 85%; pest or weed control at 500 g/ha [2, 13]: 95%; pest or weed control at 125 g/ha [2, 14]: 95%; pest or weed control at 500 g/ha [2, 14]: 100%; pest or weed control at 125 g/ha [3, 13]: 75%; pest or weed control at 500 g/ha [3, 13]: 80%; pest or weed control at 125 g/ha [3, 14]: 80%; pest or weed control at 500 g/ha [3, 14]: 85%; pest or weed control at 125 g/ha [4, 13]: 70%; pest or weed control at 500 g/ha [4, 13]: 80%; pest or weed control at 125 g/ha [4, 14]: 65%; pest or weed control at 500 g/ha [4, 14]: 85%; melting point: 157 to 158 °C (dec.)
